# Results published in article PMC10726441, “Discovery of Tumor-Targeted 6-Methyl Substituted Pemetrexed and Related Antifolates with Selective Loss of RFC Transport” (ACS Medicinal Chemistry Letters, 2023).
# Legend:
# [1] = tested on: IOSE 7576 normal ovary cells; assay: Cell proliferation assay, IOSE 7576 normal ovary cells; assay type: cell-based, human; details: for IC50: Homo sapiens, 96 h, 0-1000 nM, mean (standard error), 3-5 experiments
# Source text: For the tumor cells, except the des-methyl compound 4 with IGROV1 cells, all compounds were inhibitory. […]
# Reagents for biological studies. Leucovorin [(6R,S) 5-formyl tetrahydrofolate] and methotrexate (MTX) was provided by the Drug Development Branch, National Cancer Institute, Bethesda, MD. Other chemicals were obtained from commercial sources in the highest available purities. Pemetrexed (PMX; 1) [N-{4-[2- (2-amino-3,4-dihydro-4-oxo-7H-pyrrolo[2,3-d]pyrimidin-5-yl)ethyl]benzoyl-L-glutamic acid] (Alimta) was purchased from LC Laboratories (Woburn, MA). The syntheses of compounds 2 and 3 were previously described.7, 8 Additional chemicals were purchased from commercial sources in the highest available purities. […]
# KB nasopharyngeal carcinoma cells were obtained from the American Type Culture Collection (Manassas, VA) and IGROV1 (NCI-IGROV1) (passage 5) ovarian adenocarcinoma cells13 were obtained from the Division of Cancer Treatment and Diagnosis, National Cancer Institute (Frederick, MD). Normal ovary cells immortalized with SV40 (IOSE 7576)14 were obtained from the Canadian OvCaRe Cell Bank […]
# (Vancouver, B.C). IGROV1, KB and IOSE 7576 cells were cultured in complete FF-RPMI with 10% fetal bovine serum and 100 units/mL penicillin/100 μg/mL streptomycin, and 2 mM L-glutamine. Cell lines were tested for Mycoplasma by PCR using a Mycloplasma testing kit (Venor™ GeM Mycoplasma Detection Kit, Sigma). Frozen stocks were generated from authenticated Mycoplasma-free cultures.
# (§1) For cell proliferation assays, CHO, KB, NCI-IGROV1 and IOSE 7576 cells were plated in 96-well dishes at densities ranging from 2500-5000 cells/well in 200 μL media and treated with a range of inhibitors spanning 0-1000 nM. Experiments with RT16, D4, IGROV1, IOSE 7576 and KB cells used folate-free RPMI 1640 (FF RPMI) media with 10% dialyzed fetal bovine serum and 100 units/mL penicillin/100 μg/mL streptomycin, supplemented with 2 nM leucovorin and 2 mM L-glutamine. FR-mediated drug uptake was assessed in parallel incubations including 200 nM folic acid. For R2/PCFT4, PC43-10 and R2 CHO cells, the medium was FF-RPMI supplemented with 10% dialyzed fetal bovine serum, 100 units/mL penicillin/100 μg/mL streptomycin, 25 nM leucovorin and 2 mM L-glutamine.
# (§2) Cells were treated over a 96 h period at 37° C with 5% CO2 and relative cell numbers quantified using the CellTiter-blue cell viability assay (Promega, Madison, WI) and a fluorescence plate reader. Raw data were exported to Excel for analysis and the results were plotted using Graphpad Prism 6.0. Determinations of IC50s were made […]
# (§3) assays have been previously described.7, 8, 11, 12, 15-20
# Using KB cells, additional proliferation assays were performed with metabolite protection in folate- and glycine-free RPMI1640 with 10% dialyzed fetal bovine serum, 2 mM L-glutamine and antibiotics with 2 nM leucovorin to identify the targeted pathway and enzyme(s). 7, 8, 11, 12, 15-20 Inhibitory effects of the novel analogs on de novo thymidylate biosynthesis and de novo purine nucleotide biosynthesis were tested by incubating drugs with thymidine (10 μM) and adenosine (60 μM), respectively. Incubation with glycine (130 µM) was used to assess the potential involvement of mitochondrial C1 targeted agents.15 To identify multiple metabolic targets, metabolite additions were added in combination.7, 8, 11, 12, 15-19 Finally, to distinguish targeting between the folate-dependent purine biosynthetic enzymes glycinamide ribonucleotide formyltransferase (GARFTase) and 5-aminoimidazole-4-carboxamide (AICA) ribonucleotide formyltransferase (AICARFTase), co-incubation experiments were performed using AICA hydrochloride (320 μM). 7, 8, 11, 12, […]
# Statistics. The biological data reflect at least three experimental replicates. All statistical comparisons were performed using unpaired t-tests. Biological data are presented as mean values +/- standard errors using data without transformation.
# [2] = tested on: MTXRIIOuaR2-4 CHO cells (R2; RFC-, PCFT-, and FR-null); assay: Cell proliferation assay, transporter-null R2 CHO cells; assay type: cell-based, Chinese hamster; details: Cricetulus griseus, 96 h, 0-1000 nM, mean (standard error), 3-5 experiments
# Source text: (§4) To assess the impact of 6-methyl substitutions on the bicyclic scaffolds of the pyrrolo[2,3-d]pyrimidine antifolates 1–4 on RFC transport vis-à-vis PCFT, FRα, and FRβ, we used a unique biological readout for transport activity. This involved proliferation assays with isogenic Chinese hamster ovary (CHO) sublines derived from RFC-, FR-, and PCFT-null MTXRIIOua^R2–4 CHO cells[39],[40] engineered to express the human FRα (RT16),[25] FRβ (D4),[25] RFC (PC43–10),[41] or PCFT (R2/PCFT4).[26],[42] As these CHO cell lines are genetically identical except for their folate transporters, differences in inhibition of cell proliferation by specific cytotoxic antifolates directly reflect transporter specificities.[19],[23]−[31],[42] […]
# (§5) Reagents for biological studies. Leucovorin [(6R,S) 5-formyl tetrahydrofolate] and methotrexate (MTX) was provided by the Drug Development Branch, National Cancer Institute, Bethesda, MD. Other chemicals were obtained from commercial sources in the highest available purities. Pemetrexed (PMX; 1) [N-{4-[2- (2-amino-3,4-dihydro-4-oxo-7H-pyrrolo[2,3-d]pyrimidin-5-yl)ethyl]benzoyl-L-glutamic acid] (Alimta) was purchased from LC Laboratories (Woburn, MA). The syntheses of compounds 2 and 3 were previously described.7, 8 Additional chemicals were purchased from commercial sources in the highest available purities.
# (§6) Cell Culture. The reduced folate carrier (RFC), proton-coupled folate transporter (SLC46A1; PCFT) and folate receptor (FR) α- and β-null Chinese hamster ovary (CHO) cell line MTXRIIOuaR2-49 was a gift from Dr. Wayne Flintoff (University of Western Ontario, London, ON). Four sublines were derived from the R2 subline by transfection with either RFC, PCFT, FRα, or FRβ, giving rise to PC43-10 (expresses human RFC), 10 R2/PCFT4 (expresses human PCFT),11 RT16 (expresses human FRα), 12 and D4 (expresses FRβ) cells. 12 Isogenic CHO sublines were routinely cultured in α-minimal essential medium (α-MEM) supplemented with 100 units/mL penicillin/100 μg/mL streptomycin, 2 mM L-glutamine and 10% bovine calf serum (Sigma-Aldrich). Transfected sublines of R2 cells were cultured in the presence of 1.5 mg/ml G418. […]
# (§7) mM L-glutamine. Cell lines were tested for Mycoplasma by PCR using a Mycloplasma testing kit (Venor™ GeM Mycoplasma Detection Kit, Sigma). Frozen stocks were generated from authenticated Mycoplasma-free cultures.
# as §1, §2, §3
# (§8) Using KB cells, additional proliferation assays were performed with metabolite protection in folate- and glycine-free RPMI1640 with 10% dialyzed fetal bovine serum, 2 mM L-glutamine and antibiotics with 2 nM leucovorin to identify the targeted pathway and enzyme(s). 7, 8, 11, 12, 15-20 Inhibitory effects of the novel analogs on de novo thymidylate biosynthesis and de novo purine nucleotide biosynthesis were tested by incubating drugs with thymidine (10 μM) and adenosine (60 μM), respectively. […]
# PC43-10 (RFC) CHO cells = assay: Cell proliferation assay, PC43-10 CHO cells expressing human RFC; assay type: cell-based, Chinese hamster; details: Cricetulus griseus, 96 h, 0-1000 nM, mean (standard error), 3-5 experiments
# Source text: as §4, §5, §6, §7, §1, §2, §3, §8
SMILES,IC50 [1],IC50 [2],IC50 (PC43-10 (RFC) CHO cells),inhibition of IOSE 7576 cells (in words) [1]
"Nc1nc2[nH]cc(CCc3ccc(C(=O)N[C@@H](CCC(=O)O)C(=O)O)cc3)c2c(=O)[nH]1 [Compound 1, reference compound]",627 nM,> 1000 nM,30.6 nM,–
Nc1nc2[nH]cc(CCCc3ccc(C(=O)N[C@@H](CCC(=O)O)C(=O)O)cc3)c2c(=O)[nH]1 [Compound 2],13.2 nM,> 1000 nM,–,–
Nc1nc2[nH]cc(CCc3ccc(C(=O)N[C@@H](CCC(=O)O)C(=O)O)s3)c2c(=O)[nH]1 [Compound 3],39.3 nM,> 1000 nM,59.9 nM,–
Nc1nc2[nH]cc(CCc3ccc(C(=O)N[C@@H](CCC(=O)O)C(=O)O)c(F)c3)c2c(=O)[nH]1 [Compound 4],> 1000 nM,> 1000 nM,169 nM,inactive
Cc1[nH]c2nc(N)[nH]c(=O)c2c1CCc1ccc(C(=O)N[C@@H](CCC(=O)O)C(=O)O)cc1 [Compound 5],> 1000 nM,> 1000 nM,> 1000 nM,–
Cc1[nH]c2nc(N)[nH]c(=O)c2c1CCCc1ccc(C(=O)N[C@@H](CCC(=O)O)C(=O)O)cc1 [Compound 6],824 nM,> 1000 nM,> 1000 nM,modestly inhibitory
Cc1[nH]c2nc(N)[nH]c(=O)c2c1CCc1ccc(C(=O)N[C@@H](CCC(=O)O)C(=O)O)s1 [Compound 7],> 1000 nM,> 1000 nM,> 1000 nM,–
Cc1[nH]c2nc(N)[nH]c(=O)c2c1CCc1ccc(C(=O)N[C@@H](CCC(=O)O)C(=O)O)c(F)c1 [Compound 8],> 1000 nM,> 1000 nM,> 1000 nM,–
